How the values were obtained:
[1] = target: Histamine H1 receptor (Cavia porcellus) (UniProt P31389); experiment: (§1) Agonist activity at histamine H1 receptor in guinea pig ileum; assay type: functional, tissue-based
[2] = target: Histamine H1 receptor (Cavia porcellus) (UniProt P31389); experiment: Functional activity at the histamine H1 receptor in guinea pig ileum; assay type: tissue-based
[3] = target: Histamine H1 receptor (Cavia porcellus) (UniProt P31389); experiment: Agonist activity at histamine H1 receptor in guinea pig ileum in presence of mepyramine; assay type: functional, tissue-based
Histamine H1 receptor = Histamine H1 receptor (Cavia porcellus, UniProt P31389); experiment: as §1; assay type: functional, tissue-based
Histamine H1 receptor, sequence (P31389 whole entry): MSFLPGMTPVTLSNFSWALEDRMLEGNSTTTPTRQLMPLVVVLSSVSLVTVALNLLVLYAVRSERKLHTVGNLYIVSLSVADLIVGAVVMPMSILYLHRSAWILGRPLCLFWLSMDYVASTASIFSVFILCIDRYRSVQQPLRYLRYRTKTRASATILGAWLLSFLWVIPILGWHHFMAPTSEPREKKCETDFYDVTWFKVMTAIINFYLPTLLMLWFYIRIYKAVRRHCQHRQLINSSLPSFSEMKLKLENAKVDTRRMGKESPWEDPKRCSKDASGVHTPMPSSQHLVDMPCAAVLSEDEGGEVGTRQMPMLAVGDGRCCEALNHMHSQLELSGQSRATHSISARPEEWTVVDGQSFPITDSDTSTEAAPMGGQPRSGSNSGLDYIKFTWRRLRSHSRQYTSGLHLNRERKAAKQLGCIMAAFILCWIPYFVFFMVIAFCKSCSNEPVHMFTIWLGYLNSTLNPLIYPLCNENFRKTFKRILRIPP

Histamine H1 receptor (Cavia porcellus), sequence (P31389 whole entry): as above

Structure (SMILES) | Emax [1] | pD'2 [2] | Activity [1] | Emax [3] | EC50 (Histamine H1 receptor)
COCCOCn1cc(CCN)nc1C(=O)CC(c1ccccc1)c1ccccc1 | 0% | 5.05 | – | – | –
N[C@H](CO)[C@H](O)c1c[nH]c(C(=O)CC(c2ccccc2)c2ccccc2)n1 | 0% | 4.08 | – | – | –
NCCc1c[nH]cn1 | – | – | 100% | – | –
NCCc1c[nH]c(C(=O)CC(c2ccccc2)c2ccccc2)n1 | 75% | – | 12% | 47% | 1660 nM

Continued, values first:

Emax [1] | pD'2 [2] | Activity [1] | Emax [3] | EC50 (Histamine H1 receptor) | Structure (SMILES)
0% | 3.8 | – | – | – | COC(=O)C(N)C(O)c1c[nH]c(C(=O)CC(c2ccccc2)c2ccccc2)n1 (racemic)
0% | 4.61 | – | – | – | COC(=O)[C@@H](N)[C@H](O)c1c[nH]c(C(=O)CC(c2ccccc2)c2ccccc2)n1
